We go through three compounds from patent EP0745595A1, “3-(3-Aryloxyphenyl)-1-(substituted methyl)-s-triazine-2,4,6-oxo or thiotrione herbicidal agents” (American Cyanamid Company, priority 1995, dated 1996).

Type in all cases: in vivo
In series [1] the test system is ABUTILON THEOPHRASTI, MEDIC. Put plainly: Postemergence herbicidal evaluation, ABUTH (Velvetleaf). The following applies: rated four to five weeks after treatment, averaged. Here is the method: (§1) In the tests, seedling plants are grown in jiffy flats for about two weeks. The test compounds are dispersed in 50/50 acetone/water mixtures containing 0.5% TWEEN®20, a polyoxyethylene sorbitan monolaurate surfactant of Atlas Chemical Industries, […] to the plants through a spray nozzle operating at 40 psi for a predetermined time. After spraying, the plants are placed on greenhouse benches and are cared for in the usual manner, commensurate with conventional greenhouse practices. From four to five weeks after treatment, the seedling plants are examined and rated according to the rating system set forth below. Where more than one test is involved for a given compound, the data are averaged.
(§2) Plant species employed in these evaluations are reported by header abbreviation, common name and scientific name.
(§3) Results of herbicide evaluation are expressed on a rating scale (0-9). The scale is based upon a visual observation of plant stand, vigor, malformation, size, chlorosis and overall plant appearance as compared with a control.

The subject of series [2] is IPOMOEA SPP. Put plainly: Postemergence herbicidal evaluation, IPOSS (Morningglory spp.). The following applies: rated four to five weeks after treatment, averaged. Here is the method:
as §1, §2, §3

The subject of series [3] is SAGITTARIA PYGMAEA, L. The series is described as follows: Preemergence weed control under flooded paddy conditions, SAGPY (Arrowhead (Pygmaea)). The note with it: preemergence, 3-4 weeks after treatment. Here is the method:
as §3
Preemergence herbicidal activity under flooded paddy conditions is determined as follows: plant seeds or propagating organs are planted in the top 0.5 cm of silt loam soil in 32 oz. plastic containers with a diameter of 10.5 cm and no drainage holes. Water is added to these containers and maintained at 1.5 to 3 cm above the soil surface for the duration of the experiment. […] The treated containers are placed on greenhouse benches and cared for according to normal greenhouse procedures.- Three to four weeks after treatment the test is terminated and each container is examined and herbicidal effect rated according to the rating system provided in Example 40. The compounds evaluated are reported by compound number given in Example 40.
(§4) Plant species employed in this example are reported by header abbreviation, common name and scientific name.

The test system of series [4] is ORYZA SATIVA, L. TEBONNET
Put plainly: Rice tolerance to post-transplant applications under flooded paddy conditions, ORYSAT (Rice, Tebonnet). The note with it: post-transplant rice, 3-4 weeks after treatment. Here is the method: as §3
The tolerance of transplanted rice to post-transplanted herbicide applications is determined as follows: two ten-day-old rice seedlings (CV. Tebonnet) are transplanted into a silt loam soil in 32 oz. plastic containers with a diameter of 10.5 cm and no drainage holes. After transplanting the containers are flooded and the water level is maintained at 1.5 to 3 cm above the soil surface. […] The treated containers are placed on greenhouse benches, watered such that the water level is maintained as stated above, and cared for according to normal greenhouse procedures. Three to four weeks after treatment the test is terminated and each container is examined and herbicidal effect rated according to the rating system provided in Example 40. The compounds evaluated are reported by compound number given in Example 40.
as §4

With `COC(=O)Cn1c(=O)n(C)c(=O)n(-c2cc(Oc3ccc(Cl)c(C)c3Cl)ccc2[N+](=O)[O-])c1=O` [Compound 20, Methyl 3-{5-[(2,4-dichloro-m-tolyl)oxy]-2-nitrophenyl}tetrahydro-5-methyl-2,4,6-trioxo-s-triazine-1(2H)-acetate], the “ABUTH, herbicide rating (0-9)” value in series [1] (Rate 0.125 kg/ha), in series [1] (Rate 0.250 kg/ha) and in series [1] (Rate 0.500 kg/ha) was 9.0 in each case. Besides, the “IPOSS, herbicide rating (0-9)” value in series [2] (Rate 0.125 kg/ha), in series [2] (Rate 0.250 kg/ha) and in series [2] (Rate 0.500 kg/ha) was 9.0 in each case. The “Herbicidal effect rating, SAGPY” value in series [3] (0.063 kg/ha), in series [3] (0.125 kg/ha), in series [3] (0.250 kg/ha) and in series [3] (0.500 kg/ha) was 0.0 each time. In addition, the “Herbicidal effect rating, ORYSAT” value amounted to 2.0 in series [4] (0.063 kg/ha), 3.0 in series [4] (0.125 kg/ha), 3.0 in series [4] (0.250 kg/ha) and 4.0 in series [4] (0.500 kg/ha).

With `COC(=O)Cn1c(=O)n(C)c(=O)n(-c2cc(Oc3ccc(Cl)cc3F)ccc2[N+](=O)[O-])c1=O` [Compound 23, Methyl 3-[5-(4-chloro-2-fluorophenoxy)-2-nitrophenyl]tetrahydro-5-methyl-2,4,6-trioxo-s-triazine-1(2H)-acetate], the “Herbicidal effect rating, SAGPY” value in series [3] (0.063 kg/ha), in series [3] (0.125 kg/ha), in series [3] (0.250 kg/ha) and in series [3] (0.500 kg/ha) was 0.0 in each case. Besides, the “Herbicidal effect rating, ORYSAT” value was found to be 2.0 in series [4] (0.063 kg/ha), 2.0 in series [4] (0.125 kg/ha), 3.0 in series [4] (0.250 kg/ha) and 3.0 in series [4] (0.500 kg/ha).

Regarding `COC(=O)Cn1c(=O)n(C)c(=O)n(-c2cc(Oc3ccc(Cl)c(Cl)c3Cl)ccc2[N+](=O)[O-])c1=O` [Compound 26, Methyl 3-[2-nitro-5-(2,3,4-trichlorophen-oxy)phenyl]tetrahydro-5-methyl-2,4,6-tri-oxo-s-triazine-1(2H)-acetate], the “Herbicidal effect rating, SAGPY” value in series [3] (0.063 kg/ha), in series [3] (0.125 kg/ha), in series [3] (0.250 kg/ha) and in series [3] (0.500 kg/ha) was 0.0 throughout. For the same compound, the “Herbicidal effect rating, ORYSAT” value turned out to be 2.0 in series [4] (0.063 kg/ha), 2.0 in series [4] (0.125 kg/ha), 3.0 in series [4] (0.250 kg/ha) and 3.0 in series [4] (0.500 kg/ha).
